Read-outs that look alike come from different tables or passages of the source.
Assays:
[1] = biological target: T1, human KEAP1 (N-term, residues 321-609) (Homo sapiens, UniProt Q14145); test: KEAP1 Kelch Fluorescence Polarization (FP) Assay; format: binding; details: inhibition of Kelch domain-NRF2 interaction; 2 nM FITC-labelled NRF2 peptide, 25 nM KEAP1, 1 h room temperature; compounds below 10 nM cannot be differentiated
T1 construct: human KEAP1 (N-term, residues 321-609)
Method in brief: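 FP competition: 2 nM FITC-NRF2 peptide (LDEETGEFL) with 25 nM KEAP1 Kelch domain, pH 8.0 Tris buffer, 0.5% DMSO, 1 h at room temperature; 12-point 1:3 dilutions from 10 μM.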

[2] = system: NRF2 mediated gene NAD(P)H:quinone acceptor oxidoreductase 1 (NQO1) in BEAS-2B cells; test: Beas2B NQO1 mRNA Cell Based Assay; set-up: species or system human; details: BEAS-2B cells, compound for 24 h, increase in NQO1 mRNA compared to vehicle (0.1% DMSO) control, read-out: EC50
Method in brief: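 BEAS-2B cells treated 24 h with compound; NQO1 mRNA measured by one-step TaqMan RT-PCR on crude lysates, normalised to beta actin by ΔΔCT. Fold increase over 0.1% DMSO vehicle; EC50 from four-parameter logistic fit.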

T1 sequence (Q14145 321-609): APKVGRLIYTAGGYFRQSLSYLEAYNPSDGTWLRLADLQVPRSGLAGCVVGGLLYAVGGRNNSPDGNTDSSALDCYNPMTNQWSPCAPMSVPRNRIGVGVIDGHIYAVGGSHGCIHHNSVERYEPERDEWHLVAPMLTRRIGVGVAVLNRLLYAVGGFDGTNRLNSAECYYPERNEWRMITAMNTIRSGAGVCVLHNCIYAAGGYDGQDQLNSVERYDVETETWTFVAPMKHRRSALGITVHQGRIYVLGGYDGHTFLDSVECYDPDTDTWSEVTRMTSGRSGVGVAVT

| SMILES | IC50 [1] | EC50 ([2]; Homo sapiens) | EC50 [2] |
| --- | --- | --- | --- |
| CNC(=O)[C@@]1(C)CCC[C@H]1C(=O)N1CCc2c(Cl)ccc(OCc3nnn(C)c3C(F)F)c2[C@H]1CN1CC2(CC2)CC1=O [Example 94, (1S,2R)-2-((S)-5-chloro-8-((5-(difluoromethyl)-1-methyl-1H-1,2,3-triazol-4-yl)methoxy)-1-((6-oxo-5-azaspiro[2.4]heptan-5-yl)methyl)-1,2,3,4-tetrahydroisoquinoline-2-carbonyl)-N,1-dimethylcyclopentane-1-carboxamide] | 13 nM | 148 nM |  |
| CNC(=O)[C@@]1(C)CCCC[C@H]1C(=O)N1CCc2c(Cl)ccc(OCc3nnn(C)c3C(F)(F)F)c2[C@H]1CN1CC2(CC2)CC1=O [Example 97, (1S,2R)-2-((S)-5-chloro-8-((1-methyl-5-(trifluoromethyl)-1H-1,2,3-triazol-4-yl)methoxy)-1-((6-oxo-5-azaspiro[2.4]heptan-5-yl)methyl)-1,2,3,4-tetrahydroisoquinoline-2-carbonyl)-N,1-dimethylcyclohexane-1-carboxamide] | 8.9 nM | 114 nM |  |
| CNC(=O)[C@]1(C)CCCC[C@@H]1C(=O)N1CCc2c(Cl)ccc(OCc3nnn(C)c3C(F)F)c2[C@@H]1CN1CC2(CC2)CC1=O [Example 98, (1R,2S)-2-((R)-5-chloro-8-((5-(difluoromethyl)-1-methyl-1 H-1,2,3-triazol-4-yl)methoxy)-1-((6-oxo-5-azaspiro[2.4]heptan-5-yl)methyl)-1,2,3,4-tetrahydroisopuinoline-2-carbonyl)-N,1-dimethylcyclohexane-1-carboxamide] | 6 nM |  | 41 nM |
| Cn1nnc(COc2ccc(Cl)c3c2[C@@H](CN2CC4(CC4)CC2=O)N(C(=O)[C@@H]2CCCC[C@]2(C)C(N)=O)CC3)c1C(F)F [Example 100, (1S,2R)-2-((S)-5-chloro-8-((5-(difluoromethyl)-1-methyl-1H-1,2,3-triazol-4-yl)methoxy)-1-((6-oxo-5-azaspiro[2.4]heptan-5-yl)methyl)-1,2,3,4-tetrahydroisoquinoline-2-carbonyl)-1-methylcyclohexane-1-carboxamide] | 6.4 nM | 26 nM |  |
| CNC(=O)[C@@]1(C)CCCC[C@H]1C(=O)N1CCc2c(Cl)ccc(OCc3nnn(C)c3C3CC3)c2[C@H]1CN1CC2(CC2)CC1=O [Example 103, (1S,2R)-2-((S)-5-chloro-8-((5-cyclopropyl-1-methyl-1H-1,2,3-triazol-4-yl)methoxy)-1-((6-oxo-5-azaspiro[2.4]heptan-5-yl)methyl)-1,2,3,4-tetrahydroisoquinoline-2-carbonyl)-N,1-dimethylcyclohexane-1-carboxamide] | 7.1 nM | 57 nM |  |
| CNC(=O)[C@@]1(C)CCCC[C@H]1C(=O)N1CCc2c(Cl)ccc(OCc3cn(C)nn3)c2[C@H]1CN1C[C@H](C)CC1=O [Example 104, (1S,2R)-2-((S)-5-chloro-8-((1-methyl-1H-1,2,3-triazol-4-yl)methoxy)-1-(((R)-4-methyl-2-oxopyrrolidin-1-yl)methyl)-1,2,3,4-tetrahydroisoquinoline-2-carbonyl)-N,1-dimethylcyclohexane-1-carboxamide] | 11 nM | 784 nM |  |
| CNC(=O)[C@@]1(C)CCCC[C@H]1C(=O)N1CCc2c(Cl)ccc(OCc3nnn(C)c3COC)c2[C@H]1CN1C[C@H](C)CC1=O [Example 105, (1S,2R)-2-((S)-5-chloro-8-((5-(methoxymethyl)-1-methyl-1H-1,2,3-triazol-4-yl)methoxy)-1-(((R)-4-methyl-2-oxopyrrolidin-1-yl)methyl)-1,2,3,4-tetrahydroisoquinoline-2-carbonyl)-N,1-dimethylcyclohexane-1-carboxamide] | 17 nM | 790 nM |  |
| CNC(=O)[C@@]1(C)CCCC[C@H]1C(=O)N1CCc2c(Cl)cc(F)c(OCc3nnn(C)c3C(F)F)c2[C@H]1CN1CC2(CC2)CC1=O [Example 106, (1S,2R)-2-((S)-5-chloro-8-((5-(difluoromethyl)-1-methyl-1H-1,2,3-triazol-4-yl)methoxy)-7-fluoro-1-((6-oxo-5-azaspiro[2.4]heptan-5-yl)methyl)-1,2,3,4-tetrahydroisoquinoline-2-carbonyl)-N,1-dimethylcyclohexane-1-carboxamide] | 6.7 nM | 25 nM |  |
| CNC(=O)[C@@]1(C)CCCC[C@H]1C(=O)N1CCc2c(Cl)cc(F)c(OCc3nnn(C)c3C(F)F)c2[C@H]1CN1CCCC1=O [Example 109, (1S,2R)-2-((S)-5-chloro-8-((5-(difluoromethyl)-1-methyl-1H-1,2,3-triazol-4-yl)methoxy)-7-fluoro-1-((2-oxopyrrolidin-1-yl)methyl)-1,2,3,4-tetrahydroisoquinoline-2-carbonyl)-N,1-dimethylcyclohexane-1-carboxamide] | 7.5 nM | 140 nM |  |
| C[C@]1(C(N)=O)CCCC[C@H]1C(=O)N1CCc2c(Cl)cc(F)c(OCc3nnn4c3CCCC4)c2[C@H]1CN1CC2(CC2)CC1=O [Example 111, (1S,2R)-2-((S)-5-chloro-7-fluoro-1-((6-oxo-5-azaspiro[2.4]heptan-5-yl)methyl)-8-((4,5,6,7-tetrahydro-[1,2,3]triazolo[1,5-a]pyridin-3-yl)methoxy)-1,2,3,4-tetrahydroisoquinoline-2-carbonyl)-1-methylcyclohexane-1-carboxamide] | 7.2 nM | 30 nM |  |
| Cc1c(COc2c(F)cc(Cl)c3c2[C@@H](CN2CC4(CC4)CC2=O)N(C(=O)[C@@H]2CCCC[C@]2(C)C(N)=O)CC3)nnn1C [Example 112, (1S,2R)-2-((S)-5-chloro-8-((1,5-dimethyl-1H-1,2,3-triazol-4-yl)methoxy)-7-fluoro-1-((6-oxo-5-azaspiro[2.4]heptan-5-yl)methyl)-1,2,3,4-tetrahydroisoquinoline-2-carbonyl)-1-methylcyclohexane-1-carboxamide] | 7 nM | 99 nM |  |

The remaining compounds from weak to strong by IC50 [1], led by results:

| IC50 [1] | SMILES | EC50 ([2]; Homo sapiens) | EC50 [2] |
| --- | --- | --- | --- |
| 851 nM | CNC(=O)[C@@]1(C)CCCC[C@H]1C(=O)N1CCc2c(Cl)ccc(OCc3cn(C)nn3)c2[C@H]1CN1CCCC1=O [Example 93, (1S,2R)-2-((S)-5-chloro-8-((1-methyl-1H-1,2,3-triazol-4-yl)methoxy)-1-((2-oxopyrrolidin-1-yl)methyl)-1,2,3,4-tetrahydroisoquinoline-2-carbonyl)-N,1-dimethylcyclohexane-1-carboxamide] | > 10000 nM |  |
| 12 nM | CNC(=O)[C@@]1(C)CCCC[C@H]1C(=O)N1CCc2c(Cl)ccc(OCc3cn(C)nn3)c2[C@H]1CN1CC2(CC2)CC1=O [Example 102, (1S,2R)-2-((S)-5-chloro-8-((1-methyl-1H-1,2,3-triazol-4-yl)methoxy)-1-((6-oxo-5-azaspiro[2.4]heptan-5-yl)methyl)-1,2,3,4-tetrahydroisoquinoline-2-carbonyl)-N,1-dimethylcyclohexane-1-carboxamide] | 59 nM |  |
| 7.4 nM | CNC(=O)[C@@]1(C)CCCC[C@H]1C(=O)N1CCc2c(Cl)ccc(OCc3nnn(C)c3C3CC3)c2[C@H]1CN1CCCC1=O [Example 99, (1S,2R)-2-((S)-5-chloro-8-((5-cyclopropyl-1-methyl-1H-1,2,3-triazol-4-yl)methoxy)-1-((2-oxopyrrolidin-1-yl)methyl)-1,2,3,4-tetrahydroisoquinoline-2-carbonyl)-N,1-dimethylcyclohexane-1-carboxamide] | 109 nM |  |
| 7.3 nM | CNC(=O)[C@@]1(C)CCCC[C@H]1C(=O)N1CCc2c(Cl)cc(F)c(OCc3nnn(C)c3C(F)F)c2[C@H]1CN1CCOCC1=O [Example 108, (1S,2R)-2-((S)-5-chloro-8-((5-(difluoromethyl)-1-methyl-1H-1,2,3-triazol-4-yl)methoxy)-7-fluoro-1-((3-oxomorpholino)methyl)-1,2,3,4-tetrahydroisoquinoline-2-carbonyl)-N,1-dimethylcyclohexane-1-carboxamide] | 654 nM |  |
| 7.1 nM | CNC(=O)[C@@]1(C)CCCC[C@H]1C(=O)N1CCc2c(Cl)cc(F)c(OCc3cn(C)nn3)c2[C@H]1CN1CC2(CC2)CC1=O [Example 110, (1S,2R)-2-((S)-5-chloro-7-fluoro-8-((1-methyl-1H-1,2,3-triazol-4-yl)methoxy)-1-((6-oxo-5-azaspiro[2.4]heptan-5-yl)methyl)-1,2,3,4-tetrahydroisoquinoline-2-carbonyl)-N,1-dimethylcyclohexane-1-carboxamide] | 66 nM |  |
| 6.2 nM | Cn1nnc(COc2c(F)cc(Cl)c3c2[C@@H](CN2CC4(CC4)CC2=O)N(C(=O)[C@@H]2CCCC[C@]2(C)C(N)=O)CC3)c1C(F)F [Example 107, (1S,2R)-2-((S)-5-chloro-8-((5-(difluoromethyl)-1-methyl-1H-1,2,3-triazol-4-yl)methoxy)-7-fluoro-1-((6-oxo-5-azaspiro[2.4]heptan-5-yl)methyl)-1,2,3,4-tetrahydroisoquinoline-2-carbonyl)-1-methylcyclohexane-1-carboxamide] | 37 nM |  |
| 6.1 nM | CNC(=O)[C@@]1(C)CCCC[C@H]1C(=O)N1CCc2c(Cl)ccc(OCc3nnn(C)c3C)c2[C@H]1CN1CC2(CC2)CC1=O [Example 101, (1S,2R)-2-((S)-5-chloro-8-((1,5-dimethyl-1H-1,2,3-triazol-4-yl)methoxy)-1-((6-oxo-5-azaspiro[2.4]heptan-5-yl)methyl)-1,2,3,4-tetrahydroisoquinoline-2-carbonyl)-N,1-dimethylcyclohexane-1-carboxamide] | 18 nM |  |
